Format: physicochemical
Description: Each of the sorbitan esters is capable of solubilizing up to 100 g per liter of neat propyl magnolol or butyl magnolol. In certain embodiments, the amount of sorbitan ester is at least 10 times the weight of the propyl magnolol or butyl magnolol in the composition.
Polysorbate 80 is capable of solubilizing up to 50 g per liter of neat isopropyl magnolol or isobutyl magnolol. In certain embodiments, the amount of polysorbate 80 is at least 20 times the weight of the isopropyl magnolol or isobutyl magnolol in the composition. It was surprising that polysorbate 80 was able to solubilize these analogs. Isobutyl magnolol is not soluble in polysorbate 20, polysorbate 40, or polysorbate 85.
Polysorbate 20 is capable of solubilizing up to 100 g per liter of neat isopropyl magnolol. In certain embodiments, the amount of polysorbate 20 is at least 10 times the weight of the isopropyl magnolol in the composition. It was surprising that polysorbate 20 was able to solubilize these analogs. Isopropyl magnolol is only soluble up to 10 g per liter in polysorbate 40 or polysorbate 85.
It was surprising that these sorbitan esters were capable of solubilizing these analogs.

SMILES: CCCc1ccc(O)c(-c2cc(CCC)ccc2O)c1 [propyl magnolol, 5,5′-di-n-propylbiphenyl-2,2′-diol]
- amount of neat analog that the sorbitan ester is capable of solubilizing: up to 100 g per liter

SMILES: CCCCc1ccc(O)c(-c2cc(CCCC)ccc2O)c1 [butyl magnolol, 5,5′-di-n-butylbiphenyl-2,2′-diol]
- amount of neat analog that the sorbitan ester is capable of solubilizing: up to 100 g per liter

SMILES: CC(C)c1ccc(O)c(-c2cc(C(C)C)ccc2O)c1 [isopropyl magnolol, 5,5′-di-isopropylbiphenyl-2,2′-diol]
- amount of neat analog that polysorbate 20 is capable of solubilizing: up to 100 g per liter
- amount of neat analog that polysorbate 80 is capable of solubilizing: up to 50 g per liter
- solubility in polysorbate 40: up to 10 g per liter
- solubility in polysorbate 85: up to 10 g per liter

SMILES: CC(C)Cc1ccc(O)c(-c2cc(CC(C)C)ccc2O)c1 [isobutyl magnolol, 5,5′-di-isobutylbiphenyl-2,2′-diol]
- amount of neat analog that polysorbate 80 is capable of solubilizing: up to 50 g per liter
- solubility in polysorbate 20 (in words): not soluble
- solubility in polysorbate 40 (in words): not soluble

— patent publication US9414587B2, “Solubilized magnolol analogs” (Cologne-Palmolive Company, priority 2011, dated 2016)
